From paper PMC6873674, “Inhibition of Plasmodium sporogonic stages by ivermectin and other avermectins” (Parasites & Vectors, 2019)

Tests used:
[1] = system: P. berghei oocyst formation; assay: Bioluminescence assay of oocyst formation in vitro (Day0-Day3); format: cell-based, Plasmodium berghei; details: mean
Protocol: (§1) Purified ookinetes were seeded with Drosophila melanogaster S2 cells (Drosophila Genomics Resource Center, Bloomington, USA) in a 1:10 ratio (10^4 ookinetes and 10^5 S2 cells) in Schneider’s medium (S0146, Sigma-Aldrich) supplemented with 15% FBS, penicillin/streptomycin (50 U/ml, 50 µg/ml) and gentamicin (50 µg/ml) to promote oocyst development. Oocysts were co-cultured with D. melanogaster S2 cells in flat bottom 96-well plates (Corning, New York, USA) for up to 15 days at 19 °C. One-quarter of the medium was changed 3 times per week (every 48 to 72 h), and 10^5 S2 cells were added once per week. In parallel, S2 cells were maintained at 27 °C in Schneider’s medium (S0146, Sigma-Aldrich) supplemented with 10% FBS and penicillin/streptomycin (50 U/ml, 50 µg/ml).
(§2) A bioluminescence assay was used to assess the development of the mosquito stages of PbCSGFP-Luc. In order to evaluate the effect of compounds on the development of the parasite’s mosquito stages, samples were collected at 3 different time points to determine the effect on ookinete and oocyst formation, and oocyst maturation, as previously described. The bioluminescence assay was performed using the Firefly Luciferase Assay Kit (Biotium, Hayward, USA) according to the manufacturer’s instructions, with some modifications. Briefly, the whole well contents were collected and spun down, washed with PBS, frozen in 50 µl of lysis buffer (1:5 ratio) and stored at − 20 °C until further use. Collected samples were lysed and 30 µl of the resulting supernatant were transferred into white 96-well plates. Fifty µl of D-luciferin in Firefly luciferase assay buffer (1:50 ratio) were added to the samples and parasite load was determined by measuring luminescence intensity using a microplate reader (Tecan Infinite M200, Zurich, Switzerland).
(§3) The effect of eprinomectin, abamectin, ivermectin, moxidectin, doramectin and emamectin on the Plasmodium mosquito stages was evaluated as previously described. The compounds were dissolved in dimethyl sulfoxide (DMSO) and the amount of DMSO equivalent to that present in the highest compound concentration was used as a control. The effect of 10 µM of each compound was assessed on ookinetes, and on oocyst development and maturation. Briefly, after 1 h of incubation, the compounds were added to 5 µl of infected blood cultures, and the bioluminescence intensity of the parasites on the ookinete cultures was assessed 24 h later. To assess the effect of the compounds on oocyst development and maturation, compounds were mixed with the mature ookinetes, and parasites collected after 3 days of culture or compounds were added to the oocyst culture after 3 days of culture, and parasites collected 15 days later.
(§4) Compound concentration resulting in 50% inhibition (IC50) for oocyst growth and maturation were estimated for eprinomectin, abamectin, ivermectin, moxidectin, doramectin and emamectin (assayed at 0.05, 0.5, 1, 5, 10, 25 and 50 µM) by nonlinear regression analysis.

[2] = system: P. berghei oocyst growth/maturation; assay: Bioluminescence assay of oocyst growth/maturation in vitro (Day3-Day15); format: cell-based, Plasmodium berghei; details: mean
Protocol: as §1, §2, §3, §4

[3] = system: P. berghei ookinete formation; assay: Bioluminescence assay of ookinete formation in vitro; format: cell-based, Plasmodium berghei; details: 10 µM, 24 h
Protocol: Plasmodium berghei ANKA expressing green fluorescent protein (GFP) and luciferase under the control of the circumsporozoite protein (CSP) promoter (line 784cl1, RMgm-152, PbCSPGFP-Luc) was maintained in Anopheles stephensi mosquitoes and BALB/cByJ mice. To maintain gametocyte infectivity, only up to six passages of parasites from infected to naïve mice were performed. Ookinete in vitro production was performed as previously described. Briefly, BALB/cByJ mice were treated with 0.1 ml phenylhydrazine (25 mg/ml) 3 days prior to infection with 10^7 P. berghei-infected red blood cells (iRBC) obtained from a donor mouse. On the third day after infection, gametocytemia was monitored by light microscopy for the presence of exflagellating gametocytes in ookinete medium (1:4 dilution). […]
A bioluminescence assay was used to assess the development of the mosquito stages of PbCSGFP-Luc. […] Fifty µl of D-luciferin in Firefly luciferase assay buffer (1:50 ratio) were added to the samples and parasite load was determined by measuring luminescence intensity using a microplate reader (Tecan Infinite M200, Zurich, Switzerland).
The effect of eprinomectin, abamectin, ivermectin, moxidectin, doramectin and emamectin on the Plasmodium mosquito stages was evaluated as previously described. […] The effect of 10 µM of each compound was assessed on ookinetes, and on oocyst development and maturation. […]

[4] = system: Drosophila melanogaster S2 cells; assay: AlamarBlue in vitro cytotoxicity assay; format: cell-based; details: 10 µM, up to 7 days
Protocol: Compounds were screened for their in vitro cytotoxicity against D. melanogaster S2 cells, using the AlamarBlue® assay (Invitrogen, Carlsbad, USA). This assay allows to measure metabolic activity based on a fluoremetric/colorimetric indicator [28]. To assess the effect of the compounds on cell development, Drosophila melanogaster S2 cells were seeded in a 1:10 ratio (10^5 S2 cells) in Schneider’s medium (S0146, Sigma-Aldrich) supplemented with 15% FBS, penicillin/streptomycin (50 U/ml, 50 µg/ml) and gentamicin (50 µg/ml). All the above-mentioned compounds were added to the S2 cell cultures to a final concentration of 10 µM and the amount of DMSO equivalent to that present in the highest compound concentration was used as a control. Cultures were maintained for 7 days and one-quarter of the medium was changed 3 times per week every 48 to 72 h. Samples were collected every day by removing 120 µl of medium and adding 80 µl of AlamarBlue previously diluted in Schneider’s medium (1:10 dilution) to each well. The suspension was transferred to a 96 well flat bottom plate and incubated for one and a half hours at 37 °C. Fluorescence intensity was then measured using a microplate reader (Tecan Infinite M200) at 530 nm excitation wavelength/590 nm emission wavelength to determine cell viability.

[5] = system: P. berghei asexual and sexual blood stages; assay: In vivo activity of ivermectin against P. berghei blood stages in infected mice (flow cytometry, microscopy); parameters: species or system Plasmodium berghei (BALB/cByJ mice); details: single oral gavage 5 mg/kg, up to 5 days after infection
Excerpt: Male BALB/cByJ mice (6–8 weeks-old) purchased from Charles River Laboratories Inc. (Lyon, France) were used. Two parasite lines were employed in the experimental work, a transgenic parasite line termed PbCSGFP-Luc (RMgm-152),which expresses the fusion gene gfp-luc under the control of the csp promotor (PBANKA_0403200) integrated into the silent 230p gene locus (PBANKA_0306000), and the transgenic parasite line PbFluo-frmg (RMgm-164), which expresses GFP under control of the ‘male gametocyte-specific’ promoter of PB000791.03.0 (dynein heavy chain, putative) and RFP under the control of the ‘female gametocyte-specific’ promoter PB000504.02.0 (LCCL domain-containing protein CCP2). The rfp and gfp genes are integrated into the genome in the 230p locus (PBANKA_0306000).
In order to assess the in vivo activity of Iv, five BALB/cByJ (Charles River) mice per experimental group were infected by intraperitoneal injection of 10^7 P. berghei Fluo-frmg-infected red blood cells. Parasitaemia and gametocyteamia were measured the following days by flow cytometry analysis of 4 µl of tail blood. Blood was collected in 200 µl of PBS and 100 µl stored at 4 °C, while the remaining was transferred to 100 µl of PBS containing […] of red fluorescent nucleic acid stain Syto®61 (Thermo Fisher Scientific, Waltham, USA) and incubated for 20 min at room temperature in the dark. The samples were analysed on a LSRFortessa X-20 flow cytometer (Becton, Dickinson and Co., New Jersey, USA). Female and male gametocytes were gated based on the analysis of GFP and Red Fluorescence Protein (RFP) fluorescence, and parasitemia was estimated based on the analysis of Syto®61 and forward scatter. The positive cell population was determined by comparison of infected blood samples with an uninfected blood sample. Results were then analysed with the FlowJo^TM Software (Version 10, FlowJo^TM Software, Ashland, USA). Exflagellation was also monitored every day, until parasitemia reached 3% by microscopy analysis. To this end, 2.5 µl of tail blood were collected and mounted on a glass slide, and 8 min later the number of exflagellation events present in 4 independent fields of vision at 40× were determined. When parasitemia reached up to 3%, either DMSO or ivermectin were administered by oral gavage, at a concentration of 5 mg/kg, to five mice of each experimental group. Parasitemia, gametocytemia and exflagellation were monitored for 3 days after treatment, following which the mice were euthanized, and the experiment was terminated.

Row | Molecule | IC50 [1] | IC50 [2] | inhibition of ookinete formation (transformation of gametes/zygote into ookinetes) [3] | also measured
1 | CO[C@H]1C[C@H](O[C@H]2[C@H](C)O[C@@H](O[C@@H]3/C(C)=C/C[C@@H]4C[C@@H](C[C@]5(C=C[C@H](C)[C@@H](C6CCCCC6)O5)O4)OC(=O)[C@@H]4C=C(C)[C@@H](O)[C@H]5OC/C(=C\C=C\[C@@H]3C)[C@]54O)C[C@@H]2OC)O[C@@H](C)[C@@H]1O [Doramectin, doramectin] | 7.08 µM | 4.32 µM |  | 
2 | CO/N=C1\C[C@]2(C[C@@H]3C[C@@H](C/C=C(\C)C[C@@H](C)/C=C/C=C4\CO[C@@H]5[C@H](O)C(C)=C[C@@H](C(=O)O3)[C@]45O)O2)O[C@H](/C(C)=C/C(C)C)[C@H]1C [Moxidectin, moxidectin] |  |  |  | IC50 ([1]; Plasmodium berghei): 10.8 µM; IC50 ([2]; Plasmodium berghei): 5.49 µM
3 | abamectin | 8.77 µM | 7.93 µM |  | 
4 | emamectin | 7.31 µM | 7.36 µM | approximately 47% | cytotoxicity against S2 cells (cell viability) [4]: displays some cytotoxicity
5 | eprinomectin | 5.7 µM | 4.59 µM |  | 
6 | ivermectin | 11.6 µM | 9.32 µM | very small and non-significant impact | exflagellation events vs untreated controls [5]: no statistically significant differences; female gametocytemia vs untreated controls [5]: no statistically significant differences; male gametocytemia vs untreated controls [5]: no statistically significant differences; overall parasitemia vs untreated controls [5]: no statistically significant differences
